From patent US20110151455A1, “Fish-ribosyn for antibiotic susceptibility testing” (University of South Florida, priority 2006, published 2011)
Converted amounts (≈) assume the structure as drawn. “Also recorded” adds a separate entry of the source.

What was measured:
[1] = test system: Acinetobacter lwoffii (ATCC 15309); test: FISH-RiboSyn of antibiotic treated batch cultures (dF/dt); format: cell-based; design: ratio of dF/dt compared to the control: concentration or dose not given beside the values; conditions: for effect on ribosome synthesis: in words
Method: Acinetobacter lwoffii (ATCC 15309) was cultured on nutrient agar plates inoculated from a frozen glycerol/bead stock. After incubation for 24 hours at 32° C., a single colony was removed from the plate with a sterile loop and streaked on a second nutrient agar plate. The sterile loop was then submerged in a test tube containing 10 mL of […] which was incubated for 12 hours and 1 mL of grown culture was added to 1 mL of 4% paraformaldehyde (PFA) and incubated for 1 hour. The sample was then centrifuged at 10,000 G for 5 minutes, the supernatant decanted, and the cell pellet resuspended in ethanol PBS. Fluorescence in situ hybridization (FISH) with a genus specific probe was performed on this sample to verify culture purity before proceeding with the experiment. After culture purity was verified, the plated culture was incubated for 24 hours and a single colony was picked with a sterile loop and transferred to a 10 mL test tube of nutrient broth and incubated for 14 hours. The primary culture for this experiment was inoculated by transferring 1 mL from the test tube to a 100 mL nutrient broth flask. The optical density (OD at wavelength of 600 nm) of the culture was monitored over time until OD=0.449. At this time 10 mL of culture was transferred to four separate flasks containing 90 mL of nutrient broth and an appropriate amount of antibiotic. […] (Wisplinghoff et al. (2000)). Flask 4 was untreated as a control culture. At the same time, 9 mL of the primary culture was added to a 50 mL conical containing 1 mL of 1 mg/mL chloramphenicol for a final concentration of 100 μg/mL. Samples of 1 mL were taken from the chloramphenicol treated cell culture at 0, 5, 10, 15, and 20 minutes and incubated in 1 mL of 4% PFA for at least one hour. These samples were then centrifuged at 10,000 G for 5 minutes, the supernatant decanted and cell pellets resuspended in ethanol PBS and stored at −20° C. until evaluated by FISH.
A dilution series of a growing culture of A. lwoffii was previously used to determine the relationship between OD (at 600 nm) and CFU/mL by plating diluted samples on nutrient agar plates at various values of OD and performing plate counts.
Treated flasks were allowed to incubate for 30 minutes and which time 9 mL of the primary culture was added to a 50 mL conical containing 1 mL of 1 mg/mL chloramphenicol for a final concentration of 100 μg/mL. Samples of 1 mL were taken from the chloramphenicol treated cell culture at 0, 5, 10, 15, and 20 minutes and incubated in 1 mL of 4% PFA for at least one hour. These samples were then centrifuged at 10,000 G for 5 minutes, the supernatant decanted and cell pellets resuspended in ethanol PBS and stored at −20° C. until evaluated by FISH. This was repeated for each flask at 90, 150, and 210 minutes of incubation with the antibiotic.
All images were analyzed using the Image-Pro Plus (v6.2.0.424) software package. Only single cells or diplococci were included in analysis. Images were thresholded using the “Automatic Bright Objects” option in the measurement console. Occasionally this algorithm excluded dim objects if bright objects were present. In these cases the manual thresholding was used to find the optimal thresholding range. […] The highest size threshold used for these cells was 5,000 pixels^2.

[2] = test system: Acinetobacter lwoffii (ATCC 15309); test: Optical density of antibiotic treated batch cultures; format: cell-based; conditions: experimental batch culture compared to control
Method: Acinetobacter lwoffii (ATCC 15309) was cultured on nutrient agar plates inoculated from a frozen glycerol/bead stock. After incubation for 24 hours at 32° C., a single colony was removed from the plate with a sterile loop and streaked on a second nutrient agar plate. The sterile loop was then submerged in a test tube containing 10 mL of […] which was incubated for 12 hours and 1 mL of grown culture was added to 1 mL of 4% paraformaldehyde (PFA) and incubated for 1 hour. The sample was then centrifuged at 10,000 G for 5 minutes, the supernatant decanted, and the cell pellet resuspended in ethanol PBS. Fluorescence in situ hybridization (FISH) with a genus specific probe was performed on this sample to verify culture purity before proceeding with the experiment. After culture purity was verified, the plated culture was incubated for 24 hours and a single colony was picked with a sterile loop and transferred to a 10 mL test tube of nutrient broth and incubated for 14 hours. The primary culture for this experiment was inoculated by transferring 1 mL from the test tube to a 100 mL nutrient broth flask. The optical density (OD at wavelength of 600 nm) of the culture was monitored over time until OD=0.449. […] These samples were then centrifuged at 10,000 G for 5 minutes, the supernatant decanted and cell pellets resuspended in ethanol PBS and stored at −20° C. until evaluated by FISH.

[3] = test system: Acinetobacter baumannii CBD1311; test: Minimum inhibitory concentration (MIC) determination; format: cell-based; conditions: A. baumannii CBD1311
A. baumannii^T [4] = test: FISH-RiboSyn antibiotic susceptibility testing (rate of ribosome synthesis, pre-16S rRNA); format: cell-based, Acinetobacter baumannii; conditions: for initial mean whole cell fluorescence: prior to chloramphenicol, 8-bit intensity
Method: (§1) Sample collection. When it was observed that a culture was in mid-log growth phase (OD of approximately 0.4) 50 mL of the culture was transferred to a sterile flask and subjected to chloramphenicol at a final concentration of 200 mg/L. Samples (1 mL) were collected from the sub-culture every five minutes (including a sample at time zero) for a total of 20 minutes. Each sample was centrifuged at 10,000 G for 2 minutes, the supernatant was decanted, and the resulting cell pellet was resuspended in 1 mL of 4% PFA for 12-24 hours. The samples were centrifuged and supernatant decanted, as previously described, and resuspended in 2 mL of ethanol PBS (EtOH-PBS). The samples were stored at −20° C. until further analysis.
(§2) To test the effects of the antibiotic doxycycline, doxycycline (Fisher Scientific) stock solution (1 mg/mL) was added to 100-mL of fresh, sterile nutrient broth for a final concentration of 8 μg/mL. A sample from an actively growing culture (10 mL) was added to the doxycycline/nutrient broth for a final volume of 110 mL. The aforementioned transfers were performed for both the resistant strain A. baumannii CBD1311 (OD=0.378) and a susceptible strain A. baumannii^T (OD=0.324). […] Transfers were performed for A. baumannii CBD1311 (OD=0.338) and A. baumannii^T (OD=0.365) and the dilutions were sufficient to ensure that the culture was below a McFarland standard of 0.5. Additionally, controls were implemented for each transfer where an additional 10 mL of the appropriate culture was combined with 100 mL of fresh sterile nutrient broth without an antibiotic. All cultures were incubated at 32° C. and shaken continuously (200 rpm).
(§3) A fluorescently-labeled oligonucleotide hybridization probe, Acin1543, targeting the pre-16S rRNA for members of the genus Acinetobacter was synthesized (5′-[…]-3′) (SEQ ID NO:1) and conjugated with the cyanine dye, Cy3, before purification with oligonucleotide probe purification cartridges (Oerther et al. (2000b)). Fluorescently labeled probes were diluted to 50 ng/μL with RNase-free water and stored at −20° C. in the dark. Fixed samples were applied to a sample well on a 10 well Heavy Teflon Coated microscope slide (Cel-Line Associates, New Field, N.J.) and air-dried. After dehydration with an increasing ethanol series (50, 80, 95% [vol/vol] ethanol, 1 min each), each sample well was covered with a mixture of 18 μL of hybridization buffer (20% [vol/vol] formamide, 0.9 M NaC1, 100 mM Tris HCl [pH 7.0], 0.1% SDS) (DelosReyes et al. (1997)) and 2 μL of the stock fluorescently labeled oligonucleotide probe. The hybridizations were conducted in a moisture chamber containing excess hybridization buffer (to prevent dehydration of buffer on sample wells) for 1.5 h, in the dark, at 46° C. The slides were washed for 30 min at 48° C. with 50 mL of pre-warmed washing buffer solution (215 mM NaCl, 20 mM Tris HCl [pH 7.0], 0.1% SDS, and 5 mM EDTA) (DelosReyes et al. (1997)). Fixed, hybridized cells were mounted with Type FF immersion oil (Cargille, Cedar Grove, N.J.) and a cover slip. Cells were stained with 4′, 6-diamidino-2-phenylindole (DAPI) at a concentration of 1 μg/mL for 1 minute and rinsed with DI water.
(§4) Image Capture. Whole cell fluorescence was visualized with an upright epiflourescence microscope (Leitz DiaPlan, Heerbrugg, Switzerland), and digital images were captured using a Spot-FLEX charge coupled device (CCD) camera (Diagnostic Instruments, Inc., Sterling Heights, Mich.). Images were collected using a 100× oil objective and constant exposure time (1.1 sec for experiment I; 3.0 sec for experiment 2) and gain of 2.

A. baumannii CBD1311 = test: as above; format: cell-based, Acinetobacter baumannii; conditions: 30 minutes of antibiotic exposure; for dF/dtcm (rate of ribosome synthesis): doxycycline 8 μg/mL or levofloxacin 2 μg/mL
Method: as §1, §2, §3, §4

[5] = test system: Acinetobacter baumannii^T; test: Minimum inhibitory concentration (MIC) determination; format: cell-based; conditions: ATCC19606, A. baumannii^T, ATCC 19606
A. baumannii^T [6] = test: Growth of antibiotic treated culture by optical density (OD); format: cell-based, Acinetobacter baumannii; conditions: susceptible strain; levofloxacin 2 μg/mL
Method: Culturing. Four Acinetobacter strains (Table 1) were maintained on nutrient agar (Difco) at 35° C. Prior to each experiment, a single colony was used to inoculate an overnight culture of nutrient broth (Difco). Experimental cultures were prepared by transferring 1 mL of culture to a flask containing 100 mL of nutrient broth. The relationship between optical density (OD at 600 nm) and cell concentration (CFU/mL) was determined by collecting samples between an OD of 0.1 and 0.6. The samples were serially diluted (10^−4-10^−7) in sterile nutrient broth and 100 μL of diluted sample was spread on nutrient agar plates in replicates of 5. After 24 hours of incubation at 35° C., colonies were counted on plates which contained between 20 and 200 colonies.
To test the effects of the antibiotic doxycycline, doxycycline (Fisher Scientific) stock solution (1 mg/mL) was added to 100-mL of fresh, sterile nutrient broth for a final concentration of 8 μg/mL. A sample from an actively growing culture (10 mL) was added to the doxycycline/nutrient broth for a final volume of 110 mL. The aforementioned transfers were performed for both the resistant strain A. baumannii CBD1311 (OD=0.378) and a susceptible strain A. baumannii^T (OD=0.324). […]

[7] = antibiotic exposure 30 min, ampicillin 2 μg/mL, ciprofloxacin 0.25 μg/mL, doxycycline 500 μg/mL
[8] = 90 minutes of antibiotic exposure, doxycycline 8 μg/mL or levofloxacin 2 μg/mL

`CC1(C)S[C@@H]2[C@H](NC(=O)[C@H](N)c3ccccc3)C(=O)N2[C@H]1C(=O)O` [Ampicillin] was tested. Which “ratio of dF/dt compared to the control” value ([1]; antibiotic exposure 30 min) did it give?
The value was 93%.

What about the dF/dt [1, 7] of the same compound?
The dF/dt was 4.7.

And the dF/dt ([1]; antibiotic exposure 90 min)?
The dF/dt was 5.06.

And the “ratio of dF/dt compared to the control” value ([1]; antibiotic exposure 90 min)?
Its value is 152%.

What about the dF/dt ([1]; antibiotic exposure 150 min) of the same compound?
The dF/dt was 2.86.

What about the dF/dt ([1]; antibiotic exposure 210 min) of the same compound?
Its dF/dt is 0.

And the “ratio of dF/dt compared to the control” value ([1]; antibiotic exposure 210 min)?
The value was 0%.

What about the “effect on ribosome synthesis” value [1] of the same compound?
The value was “impacted by the ampicillin after exposure for 150 and 210 min; also recorded: greater dF/dt than the control cells”.

What about the cell morphology ([1]; long exposures (T=150 min)) of the same compound?
The cell morphology was “elongated cells”.

What about the “impact on optical density” value [2] of the same compound?
The value was “mild impact”.

For `O=C(O)c1cn(C2CC2)c2cc(N3CCNCC3)c(F)cc2c1=O` [Ciprofloxacin], which dF/dt [1, 7] is on record?
Its dF/dt is 4.46.

What about the dF/dt ([1]; antibiotic exposure 90 min) of the same compound?
Its dF/dt is 2.42.

And the dF/dt ([1]; antibiotic exposure 150 min)?
Its dF/dt is 0.254.

What about the dF/dt ([1]; antibiotic exposure 210 min) of the same compound?
The dF/dt was 0.308.

And the “effect on ribosome synthesis” value [1]?
The value was “appear to not be synthesizing ribosomes after 150 min”.

How did the “ratio of dF/dt compared to the control” value ([1]; antibiotic exposure 30 min) turn out when `C[C@H]1c2cccc(O)c2C(=O)C2=C(O)[C@]3(O)C(=O)C(C(N)=O)=C(O)[C@@H](N(C)C)[C@@H]3[C@@H](O)[C@@H]21` [doxycycline] was run?
Its value is 2%.

And the dF/dt [1, 7]?
Its dF/dt is 0.1238.

What about the dF/dt ([1]; antibiotic exposure 90 min) of the same compound?
Its dF/dt is 0.

And the “ratio of dF/dt compared to the control” value ([1]; antibiotic exposure 90 min)?
Its value is 0%.

And the dF/dt ([1]; antibiotic exposure 150 min)?
The dF/dt was 0.

What about the dF/dt ([1]; antibiotic exposure 210 min) of the same compound?
Its dF/dt is 0.

And the “ratio of dF/dt compared to the control” value ([1]; antibiotic exposure 210 min)?
Its value is 0%.

What about the MIC [3] of the same compound?
Its MIC is 16 µg/mL (≈ 36 µM).

What about the “initial mean whole cell fluorescence” value (A. baumannii^T [4]; 30 minutes of antibiotic exposure) of the same compound?
The value was 59.6.

And the “dF/dtcm (rate of ribosome synthesis)” value (A. baumannii^T [4]; [8])?
Its value is 1.38.

What about the “initial mean whole cell fluorescence” value (A. baumannii CBD1311; prior to chloramphenicol, 8-bit intensity) of the same compound?
Its value is “approximately 26”.

And the “dF/dtcm (rate of ribosome synthesis)” value (A. baumannii CBD1311)?
The value was 4.95.

And the MIC [5]?
The MIC was at most 0.125 µg/mL.

What does the source list for `C[C@H]1COc2c(N3CCN(C)CC3)c(F)cc3c(=O)c(C(=O)O)cn1c23` [levofloxacin]?
MIC [3]: 8 µg/mL (≈ 22.1 µM); delay before cessation of growth (A. baumannii^T [6]): 60 min; dF/dtcm (rate of ribosome synthesis) (A. baumannii^T [4]; 30 minutes of antibiotic exposure, doxycycline 8 μg/mL or levofloxacin 2 μg/mL): 2.23; initial mean whole cell fluorescence (A. baumannii^T [4]; 90 minutes of antibiotic exposure): 71; dF/dtcm (rate of ribosome synthesis) (A. baumannii^T [4]; [8]): 1.67; reduction in dF/dtcm compared to the control (A. baumannii^T [4]; 90 minutes of levofloxacin exposure): > 50%; dF/dtcm (rate of ribosome synthesis) (A. baumannii^T [4]; after 60 minutes of exposure to levofloxacin (so in the source), 2 μg/mL): 1.67; dF/dtcm (rate of ribosome synthesis) (A. baumannii CBD1311): 5.84; MIC [5]: 0.25 µg/mL (≈ 0.692 µM)
